The NIST ThermoML archive (doi:10.1016/j.jct.2016.02.001)

Assay: mn = molality of the nth substance listed, in mol/kg
Settings: for surface tension liquid-gas: Maximal bubble pressure; for mass density: 100 kPa, Liquid, Vibrating tube method

CC(=O)[O-].CCCCCCn1cc[n+](C)c1 [3-hexyl-1-methylimidazolium acetate] + O
Settings	mass density [kg/m3]	surface tension liquid-gas [mN/m]
288.15 K, m1 = 0.0117	1000.09	73
288.15 K, m1 = 0.0162	1000.19	72.9
288.15 K, m1 = 0.0285	1000.4	72.7
288.15 K, m1 = 0.044	1000.58	72.2
288.15 K, m1 = 0.1102	1001.44	70.4
288.15 K, m1 = 0.1674	1002.13	68.9
288.15 K, m1 = 0.2233	1002.92	67.6
288.15 K, m1 = 0.2797	1003.61	66.3
288.15 K, m1 = 0.3357	1004.39	65.1
288.15 K, m1 = 0.3914	1005.11	63.7
288.15 K, m1 = 0.4475	1005.8	62.4
288.15 K, m1 = 0.5029	1006.52	61.4
293.15 K, m1 = 0.0117	999.03	72.3
293.15 K, m1 = 0.0162	999.15	72.2
293.15 K, m1 = 0.0285	999.32	71.9
293.15 K, m1 = 0.044	999.53	71.3
293.15 K, m1 = 0.1102	1000.29	69.6
293.15 K, m1 = 0.1674	1000.95	68.2
293.15 K, m1 = 0.2233	1001.64	67
293.15 K, m1 = 0.2797	1002.33	65.6
293.15 K, m1 = 0.3357	1003	64.4
293.15 K, m1 = 0.3914	1003.71	63
293.15 K, m1 = 0.4475	1004.46	61.7
293.15 K, m1 = 0.5029	1005.19	60.7
298.15 K, m1 = 0.0117	997.74	71.6
298.15 K, m1 = 0.0162	997.89	71.4
298.15 K, m1 = 0.0285	998.01	71.1
298.15 K, m1 = 0.044	998.25	70.6
298.15 K, m1 = 0.1102	998.91	69
298.15 K, m1 = 0.1674	999.59	67.5
298.15 K, m1 = 0.2233	1000.3	66.2
298.15 K, m1 = 0.2797	1001	64.8
298.15 K, m1 = 0.3357	1001.66	63.7
298.15 K, m1 = 0.3914	1002.34	62.4
298.15 K, m1 = 0.4475	1003.01	61.1
298.15 K, m1 = 0.5029	1003.64	60.2
303.15 K, m1 = 0.0117	996.24	70.7
303.15 K, m1 = 0.0162	996.35	70.6
303.15 K, m1 = 0.0285	996.49	70.3
303.15 K, m1 = 0.044	996.69	69.7
303.15 K, m1 = 0.1102	997.44	68.1
303.15 K, m1 = 0.1674	998.06	66.8
303.15 K, m1 = 0.2233	998.79	65.6
303.15 K, m1 = 0.2797	999.48	64.1
303.15 K, m1 = 0.3357	1000.14	62.9
303.15 K, m1 = 0.3914	1000.78	61.7
303.15 K, m1 = 0.4475	1001.42	60.5
303.15 K, m1 = 0.5029	1002.04	59.6
308.15 K, m1 = 0.0117	994.58	69.8
308.15 K, m1 = 0.0162	994.69	69.7
308.15 K, m1 = 0.0285	994.81	69.4
308.15 K, m1 = 0.044	994.99	68.9
308.15 K, m1 = 0.1102	995.81	67.5
308.15 K, m1 = 0.1674	996.43	65.9
308.15 K, m1 = 0.2233	997.08	64.7
308.15 K, m1 = 0.2797	997.72	63.4
308.15 K, m1 = 0.3357	998.39	62.2
308.15 K, m1 = 0.3914	999.02	61.1
308.15 K, m1 = 0.4475	999.65	59.9
308.15 K, m1 = 0.5029	1000.24	58.9
313.15 K, m1 = 0.0117	992.75	69
313.15 K, m1 = 0.0162	992.83	68.9
313.15 K, m1 = 0.0285	992.94	68.7
313.15 K, m1 = 0.044	993.11	68.2
313.15 K, m1 = 0.1102	993.86	66.6
313.15 K, m1 = 0.1674	994.56	65.3
313.15 K, m1 = 0.2233	995.21	64.1
313.15 K, m1 = 0.2797	995.84	62.8
313.15 K, m1 = 0.3357	996.49	61.7
313.15 K, m1 = 0.3914	997.12	60.5
313.15 K, m1 = 0.4475	997.73	59.2
313.15 K, m1 = 0.5029	998.32	58.2
318.15 K, m1 = 0.0117	990.75	68.2
318.15 K, m1 = 0.0162	990.81	68.1
318.15 K, m1 = 0.0285	990.95	67.9
318.15 K, m1 = 0.044	991.1	67.4
318.15 K, m1 = 0.1102	991.84	65.8
318.15 K, m1 = 0.1674	992.43	64.4
318.15 K, m1 = 0.2233	993.11	63.3
318.15 K, m1 = 0.2797	993.76	62.1
318.15 K, m1 = 0.3357	994.39	61
318.15 K, m1 = 0.3914	995	59.7
318.15 K, m1 = 0.4475	995.59	58.5
318.15 K, m1 = 0.5029	996.16	57.7
